The source of these data is US20230339927A1, “ATR INHIBITORS AND USES THEREOF” (ANTENGENE DISCOVERY LIMITED, priority 2020, published 2023).

The target of one assay is T1, ATR kinase (Homo sapiens, UniProt Q13535).
T1 construct: purchased Eurofins 14-953
Nature of the assay: ATR inhibition assay (mobility shift assay, FAM-RAD17 phosphorylation). Type of assay: biochemical. The note with it: substrate FAM-RAD17, ATR kinase (Eurofins). As to the method:
Assay 1: ATR Inhibition Assay
The assay was developed and conducted at Chempartner. All the test compounds were dissolved in 100% DMSO at concentration of 20 mM, then prepare compounds and conducted the assay as follows:
1) Transfer 80 µl20 mM compound to 40 µl of 100% DMSO in a 96-well plate.
2) Serially dilute the compound by transferring 20 µl to 60 µl of 100% DMSO in the next well and so forth for a total of 10 concentrations.
3) Add 100 µl of 100% DMSO to two empty wells for no compound control and no enzyme control in the same 96-well plate. Mark the plate as source plate.
4) Transfer 40 µl of compound from source plate to a new 384-well plate as the intermediate plate.
5) Transfer 60 nl compounds to assay plate by Echo.
No. D14JP007N) into Kinase base buffer (50 mM HEPES, pH 7.5; 0.0015% Brij-35; 0.01% Triton) to prepare 2x enzyme solution, then add 10 µl of 2x enzyme solution to each well of the 384-well assay plate, incubate at room temperature for 10 min.
8) Incubate at 28° C. for specified period of time. Add 40 µl of stop buffer (100 mM HEPES, pH 7.5; 0.015% Brij-35; 0.2% Coating Reagent #3; 50 mM EDTA) to stop reaction.
9) Collect data on Caliper. Convert conversion values to inhibition values.
wherein “max” stands for DMSO control; “min” stands for low control.
Fit the data in XLFit excel add-in version 5.4.0.8 to obtain IC50 values. Equation used is: […]
wherein X means concentration in a format not transformed to logarithms.

Assay [1] concerns LoVo (CCL-229) human colorectal cancer cells. Nature of the assay: Tumor cell anti-proliferation assay (CTG assay). Type of assay: cell-based. The note with it: 96 h incubation, CellTiter-Glo, IC50 (Y=50%). The source says: Assay 2: Tumor Cell Anti-proliferation Assay (CTG Assay)
Human colorectal cancer cells HT-29 (HTB-38) and LoVo (CCL-229) were selected for the CTG assay, the two cell lines were originally obtained from the American Type Culture Collection (ATCC). Add FBS and appropriate additives into base medium to prepare complete medium, then briefly rinse the cell layer with 0.25% (w/v) Trypsin-0.038% (w/v) EDTA solution to remove all traces of serum that contains trypsin inhibitor, after that, add appropriate volume of Trypsin-EDTA solution to flask and observe cells under an inverted microscope until cell layer is dispersed, at last, add appropriate volume of complete growth medium and aspirate cells by gently pipetting. Collect and count numbers with Vi-cell XR and adjust cell density, seed cells into 96-well opaque-walled clear bottom tissue-culture treated plates in the CO2 incubator for 20-24 hours. All the test compounds will be at 10 mM in DMSO. Compounds are then added to the cell media in 3-fold serial dilutions, the final DMSO concentration is 0.5%. Incubate plates for 96 h at 5% CO2, 37° C. Before the measurement, transfer the appropriate volume of CellTiter-Glo Buffer into the amber bottle containing CellTiter-Glo substrate to reconstitute the lyophilized enzyme/substrate mixture, mix gently, this forms the CellTiter-Glo Reagent (Promega Cat. No. G7573). Equilibrate the plate and its contents to room temperature for approximately 30 minutes, then add 100 µL of CellTiter-Glo Reagent to the assay plate, mix contents for 2 minutes on an orbital shaker to induce cell lysis, incubate at room temperature for 10 minutes to stabilize luminescent signal, at last paste the clear bottom with white back seal and record luminescence with Enspire. IC50 and GI50 values were calculated with XLFit curve fitting software using 4 Parameter Logistic Model Y=Bottom + (Top-Bottom)/(1+(IC50/X)^HillSlope).
The following Table 3 provides the IC50 (Y=50%) values for exemplary compounds of Formula (I).
In general terms: In ATP-based viability assays light output follows the ATP content of the culture.

What is called IC50 is the concentration at which inhibition is half-maximal.

T1 sequence (Q13535 whole entry): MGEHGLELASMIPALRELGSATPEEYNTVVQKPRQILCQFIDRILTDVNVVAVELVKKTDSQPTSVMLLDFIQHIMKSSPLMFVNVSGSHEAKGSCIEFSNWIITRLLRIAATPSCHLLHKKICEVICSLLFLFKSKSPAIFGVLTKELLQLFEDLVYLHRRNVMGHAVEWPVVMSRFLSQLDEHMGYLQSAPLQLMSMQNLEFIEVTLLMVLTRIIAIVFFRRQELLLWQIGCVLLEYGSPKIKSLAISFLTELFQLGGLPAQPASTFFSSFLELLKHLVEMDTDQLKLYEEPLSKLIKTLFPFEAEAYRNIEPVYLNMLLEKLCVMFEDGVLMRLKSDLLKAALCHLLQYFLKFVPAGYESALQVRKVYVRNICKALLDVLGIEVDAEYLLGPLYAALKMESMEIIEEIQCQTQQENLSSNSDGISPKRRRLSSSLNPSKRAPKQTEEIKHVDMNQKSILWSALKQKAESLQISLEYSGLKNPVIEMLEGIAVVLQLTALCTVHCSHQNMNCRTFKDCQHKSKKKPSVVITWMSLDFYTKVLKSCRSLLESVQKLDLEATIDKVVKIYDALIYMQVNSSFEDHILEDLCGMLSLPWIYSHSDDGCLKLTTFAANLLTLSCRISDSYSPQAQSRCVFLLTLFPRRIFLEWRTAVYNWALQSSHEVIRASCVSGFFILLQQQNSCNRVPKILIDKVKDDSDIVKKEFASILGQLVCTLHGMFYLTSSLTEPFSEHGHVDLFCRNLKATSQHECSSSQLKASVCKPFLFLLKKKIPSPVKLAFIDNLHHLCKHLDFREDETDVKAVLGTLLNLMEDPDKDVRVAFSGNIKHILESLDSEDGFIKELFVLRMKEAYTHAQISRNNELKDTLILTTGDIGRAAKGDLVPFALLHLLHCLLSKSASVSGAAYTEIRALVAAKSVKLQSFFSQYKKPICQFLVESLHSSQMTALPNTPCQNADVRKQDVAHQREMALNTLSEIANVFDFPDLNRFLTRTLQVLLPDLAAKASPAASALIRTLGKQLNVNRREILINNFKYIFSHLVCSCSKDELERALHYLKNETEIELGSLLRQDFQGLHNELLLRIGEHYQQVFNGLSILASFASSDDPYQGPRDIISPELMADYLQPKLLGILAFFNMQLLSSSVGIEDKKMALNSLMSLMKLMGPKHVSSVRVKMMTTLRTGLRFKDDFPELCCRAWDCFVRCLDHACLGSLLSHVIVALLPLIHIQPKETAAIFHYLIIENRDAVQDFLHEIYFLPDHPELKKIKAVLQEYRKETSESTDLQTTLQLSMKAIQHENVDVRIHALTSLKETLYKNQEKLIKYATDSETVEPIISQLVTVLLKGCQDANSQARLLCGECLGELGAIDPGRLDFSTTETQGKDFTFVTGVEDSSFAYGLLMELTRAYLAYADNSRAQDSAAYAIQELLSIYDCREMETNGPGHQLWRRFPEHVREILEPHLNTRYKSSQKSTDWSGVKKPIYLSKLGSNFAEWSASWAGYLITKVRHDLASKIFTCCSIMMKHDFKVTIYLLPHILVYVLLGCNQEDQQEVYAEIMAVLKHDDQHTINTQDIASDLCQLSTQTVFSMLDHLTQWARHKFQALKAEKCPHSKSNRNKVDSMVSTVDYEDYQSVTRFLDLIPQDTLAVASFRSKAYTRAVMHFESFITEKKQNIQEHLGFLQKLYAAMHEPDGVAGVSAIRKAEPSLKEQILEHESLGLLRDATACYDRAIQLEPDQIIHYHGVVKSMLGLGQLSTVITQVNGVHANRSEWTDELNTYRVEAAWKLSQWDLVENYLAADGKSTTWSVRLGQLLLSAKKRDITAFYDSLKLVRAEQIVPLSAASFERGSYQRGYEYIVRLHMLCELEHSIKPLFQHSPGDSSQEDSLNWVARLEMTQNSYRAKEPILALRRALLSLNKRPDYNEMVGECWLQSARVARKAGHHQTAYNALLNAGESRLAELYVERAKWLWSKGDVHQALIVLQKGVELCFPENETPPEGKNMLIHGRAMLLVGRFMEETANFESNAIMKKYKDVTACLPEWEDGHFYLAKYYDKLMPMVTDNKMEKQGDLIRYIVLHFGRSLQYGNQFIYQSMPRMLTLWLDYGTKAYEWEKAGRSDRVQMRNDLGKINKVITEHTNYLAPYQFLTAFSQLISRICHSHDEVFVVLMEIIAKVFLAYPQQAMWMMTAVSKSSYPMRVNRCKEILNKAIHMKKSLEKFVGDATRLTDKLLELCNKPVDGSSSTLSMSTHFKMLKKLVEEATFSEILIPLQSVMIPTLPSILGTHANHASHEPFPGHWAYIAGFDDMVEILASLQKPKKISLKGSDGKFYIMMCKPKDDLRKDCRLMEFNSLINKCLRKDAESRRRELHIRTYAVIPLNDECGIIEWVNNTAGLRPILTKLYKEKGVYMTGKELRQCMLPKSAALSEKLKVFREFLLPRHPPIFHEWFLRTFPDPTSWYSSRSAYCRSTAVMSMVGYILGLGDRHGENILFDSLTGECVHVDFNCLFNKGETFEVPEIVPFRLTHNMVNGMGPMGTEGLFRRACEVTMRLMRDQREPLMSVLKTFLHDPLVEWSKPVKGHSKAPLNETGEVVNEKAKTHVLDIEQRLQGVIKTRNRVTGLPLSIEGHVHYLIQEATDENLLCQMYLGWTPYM
T1 sequence (Q8WXE1 whole entry partner): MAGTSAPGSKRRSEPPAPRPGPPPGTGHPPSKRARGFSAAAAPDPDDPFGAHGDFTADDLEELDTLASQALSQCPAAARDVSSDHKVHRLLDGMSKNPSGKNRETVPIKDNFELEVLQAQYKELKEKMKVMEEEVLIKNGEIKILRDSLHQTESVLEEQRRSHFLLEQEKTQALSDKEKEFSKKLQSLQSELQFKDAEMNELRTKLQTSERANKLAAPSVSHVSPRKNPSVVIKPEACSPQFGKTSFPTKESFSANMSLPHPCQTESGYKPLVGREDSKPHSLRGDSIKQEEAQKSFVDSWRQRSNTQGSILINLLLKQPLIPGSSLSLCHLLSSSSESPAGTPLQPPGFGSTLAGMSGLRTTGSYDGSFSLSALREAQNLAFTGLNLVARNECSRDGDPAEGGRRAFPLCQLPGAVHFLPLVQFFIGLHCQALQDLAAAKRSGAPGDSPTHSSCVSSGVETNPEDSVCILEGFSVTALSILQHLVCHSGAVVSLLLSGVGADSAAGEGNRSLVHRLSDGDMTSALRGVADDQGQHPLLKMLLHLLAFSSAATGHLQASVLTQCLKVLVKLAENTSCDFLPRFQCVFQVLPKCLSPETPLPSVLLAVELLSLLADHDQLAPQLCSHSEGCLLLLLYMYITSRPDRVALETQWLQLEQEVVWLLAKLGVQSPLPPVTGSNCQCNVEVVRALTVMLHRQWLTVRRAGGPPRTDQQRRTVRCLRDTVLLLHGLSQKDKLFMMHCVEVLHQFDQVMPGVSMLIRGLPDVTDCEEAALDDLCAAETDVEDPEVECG

With `Cc1cc(Nc2nc(N3CCOC[C@H]3C)cc(C(C)(C)C#N)n2)[nH]n1` [Compound 10, (R)-2-methyl-2-(2-((3-methyl-1H-pyrazol-5-yl)amino)-6-(3-methylmorpho-lino)pyrimidin-4-yl)propanenitrile], the IC50 amounted to 10 nM at ATR kinase and 263 nM in assay [1].

On to `C[C@@H]1COCCN1c1cc(C(C)(C)S(C)(=O)=O)nc(Nc2ccn[nH]2)n1` [Compound 7, (R)-4-(3-methylmorpholino)-6-(2-(methylsulfonyl)propan-2-yl)-N-(1H-pyrazol-5-yl)pyrimidin-2-amine], for which the IC50 on ATR kinase was 28 nM; in assay [1] it was 872 nM.

As for `Cc1cc(Nc2nc(N3CCOC[C@H]3C)cc(C3(S(C)(=O)=O)CCOCC3)n2)[nH]n1` [Compound 12, (R)-N-(3-methyl-1H-pyrazol-5-yl)-4-(3-methylmorpholino)-6-(4-(methylsulfonyl)tetrahydro-2H-pyran-4-yl)pyrimidin-2-amine], the values for the IC50 (at ATR kinase; in assay [1]) were 13 nM and 611 nM, respectively.

For the compound `Cc1cc(Nc2nc(N3CCOC[C@H]3C)cc(C(C)(C)S(C)(=O)=O)n2)[nH]n1` [Compound 8, (R)-N-(3-methyl-1H-pyrazol-5-yl)-4-(3-methylmorpholino)-6-(2-(methylsulfonyl)propan-2-yl)pyrimidin-2-amine], the IC50 came to 13.2 nM on ATR kinase and 398 nM in assay [1].

For `C[C@@H]1COCCN1c1cc(C2(C#N)CCCCC2)nc(Nc2ccn[nH]2)n1` [Compound 41, (R)-1-(2-((1H-pyrazol-5-yl)amino)-6-(3-methylmorpholino)pyrimidin-4-yl)cyclohexane-1-carbonitrile], the IC50 on ATR kinase came to 2.5 nM; in assay [1], 370 nM.

Take `Cc1cc(Nc2cc(C3(C#N)CC3)cc(N3CCOC[C@H]3C)n2)[nH]n1` [Compound 35, 1-{2-[(3-methyl-1H-pyrazol-5-yl)amino]-6-[(3R)-3-methylmorpholin-4-yl]pyridin-4-yl}cyclopropane-1-carbonitrile]: the IC50 on ATR kinase is 33.3 nM; in assay [1], 718 nM.

For `C[C@@H]1COCCN1c1cc(C2(S(C)(=O)=O)CC2)cc(Nc2ccn[nH]2)n1` [Compound 1, (R)-6-(3-methylmorpholino)-4-(1-(methylsulfonyl)cyclopropyl)-N-(1H-pyrazol-5-yl)pyridin-2-amine], the IC50 at ATR kinase was 14.4 nM; in assay [1] it was 334 nM.

In the case of `Cc1cc(Nc2cc(C(C)(C)S(C)(=O)=O)cc(N3CCOC[C@H]3C)n2)[nH]n1` [Compound 27, 4-(2-methanesulfonylpropan-2-yl)-N-(3-methyl-1H-pyrazol-5-yl)-6-[(3R)-3-methylmorpholin-4-yl]pyridin-2-amine], the IC50 at ATR kinase turned out to be 15.7 nM; in assay [1], 564 nM.

Consider `C[C@@H]1COCCN1c1cc(C(C)(C)S(C)(=O)=O)cc(Nc2ccn[nH]2)n1` [Compound 26, (R)-6-(3-methylmorpholino)-4-(2-(methylsulfonyl)propan-2-yl)-N-(1H-pyrazol-5-yl)pyridin-2-amine], for which the IC50 on ATR kinase was 22 nM; in assay [1], 517 nM.

Turning to `C[C@@H]1COCCN1c1cc(C2(C#N)CCOCC2)nc(Nc2ccn[nH]2)n1` [Compound 42, (R)-4-(2-((1H-pyrazol-5-yl)amino)-6-(3-methylmorpholino)pyrimidin-4-yl) tetrahydro-2H-pyran-4-carbonitrile], the IC50 was determined as 19.7 nM at ATR kinase and 640 nM in assay [1].

`Cc1cc(Nc2nc(N3CCOC[C@H]3C)cc(C3(S(C)(=O)=O)CC3)n2)[nH]n1` [Compound 6, 4-(1-methanesulfonylcyclopropyl)-N-(3-methyl-1H-pyrazol-5-yl)-6-[(3R)-3-methylmorpholin-4-yl]pyrimidin-2-amine]: the IC50 on ATR kinase turned out to be 16 nM; in assay [1], 401 nM.
